≈ marks a conversion by molar mass, not a printed value.
Columns and labels:
Streptococcus agalactiae = test: MIC against clinically isolated strains, Streptococcus agalactiae; format: cell-based; conditions: Streptococcus agalactiae (17 strains)
Description: (§1) Standard strains, including Staphylococcus aureus ATCC29213, S. pneumoniae ATCC49619, E. faecalis ATCC29212, are all available from the American Type Culture Collection.
(§2) Clinically isolated strains: There are total 120 clinical strains of gram-positive bacterium including: 37 strains of Staphylococcus aureus (consisting of 14 strains of methicillin sensitive Staphylococcus aureus MSSA and 23 strains of methicillin resistant Staphylococcus aureus MRSA); 27 strains of Streptococcus pneumoniae (consisting of 13 strains of penicillin sensitive Streptococcus pneumoniae PSSP and 14 strains of penicillin insensitive or resistant Streptococcus pneumoniae PISP+PRSP); 15 strains of Streptococcus pyogenes; 17 strains of Streptococcus agalactiae; 24 stains of Enterococcus faecium (consisting of 12 strains of vancomycin sensitive Enterococcus faecium and 12 strains of vancomycin resistant Enterococcus faecium).
(§3) (2) Tested compounds: Compound 13f was prepared by the methods above, with potency of over 98%; Linezolid was purchased from Pfizer, with potency of 100%.
(§4) Staphylococcus and Enterococcus faecium were incubated in Mueller-Hinton agar medium (MHA medium) at 35° C. for 16-20 h; S. pneumoniae was incubated in Cation-Adjusted Mueller-Hinton Broth medium (CAMHB medium) supplemented with 2.5-5.5% (v/v) lysed horse blood (LHB) at 35° C. for 20-24 h; and Streptococcus were incubated in sheep blood-containing medium (prepared by addition of 5% defibrinated sheep blood into MHA media) at 35° C. for 20-24 h in 5% CO2 environment (CO2 incubator). Before test of the compound activity, each stock of the bacteria strains was activated and colonized in the following manner: the stock was transferred and cultured in a liquid culture medium, the culture liquid was smeared onto an agar plate with an inoculating loop to obtain bacterial colonies on the plate after incubation, and then a colony of the bacteria was chose to be suspended into the liquid culture medium for performing the test of compound activity. As a result, fresh bacteria cells were applied to the test. The standard strains were used as sensitive bacterium to control the quality of the experiments, and a plate or tube containing no antibacterial compounds is used as a blank control for the growth of test strains.
(§5) The minimal inhibitory concentration (MIC) of the test compounds on the strains of Streptococcus pneumoniae was determined by a standard broth macrodilution method, while the MIC of the test compounds on the other bacteria stains was determined by standard agar double dilution methods. The concentration of the test compounds was in the range of 32 mg/L-0.016 mg/L. The bacterial suspensions to be tested were inoculated by a multipoint inoculator, and the inoculation amount at each point is 10^4 CFU. The MIC of the test compound to each strain of the bacteria was determined.

[1] = system: Enterococcus faecium-sensitive vancomycin; test: MIC against clinically isolated strains, vancomycin sensitive Enterococcus faecium; format: cell-based; conditions: Enterococcus faecium-sensitive vancomycin (12 strains)
Description: as §1, §2, §3, §4, §5

ATCC 25923 = test: Mouse model of systemic infection; format: in vivo, C57 mice; conditions: intravenous
Description: Animal model: SPF grade C57 mice, 4-6 weeks age, weight 18-22 g, ten mice per group;
Infectious strain: ATCC 25923, grown in a MHB medium to a period of logarithmic growth;
Test compounds: Compound 13f prepared according to the methods above, and Linezolid as a control, purchased from Airsea Pharmaceutical Ltd., (Taizhou, ZheJiang Province, China;
Formulation and dosage of the test compounds: To evaluate the treating effect of compound 13f, an animal model of intraperitoneal infection by bacteria was established and grouped into 13f group and Linezolid group. The same dosage of the compound 13f and Linezolid was administrated to the groups, respectively.
The minimum lethal dose (MLD) was determined as follows: Bacterial stock liquid cultured overnight was adjusted to 0.5 McFarland with saline solution, and subsequently subjected to a proper serial dilution. 3-5 dilutions with different concentrations of the bacteria were used to infect mice (10 mice per concentration), respectively, by intraperitoneal injection with a volume of 0.5 mL of the dilution. The minimum concentration at which 100% mice were dead was regarded as MLD. For purpose of ensuring experimental reliability, two control groups (MLD control group and 1/10MLD control group) were used in this experiment. The mortality of the MLD control group was 100%, while the mortality of the 1/10OMLD control group was 30%. […] To enhance virulence of the infectious bacteria, 15% yeast was added into the bacterial liquid for infection.
Experimental animal and grouping: SPF grade C57 mice (purchased from Experiment Animal Center, West China Hospital of Sichuan University), 4-6 weeks old, weighting 18-22 g, were randomly divided into groups, including model group, and treating groups consisting of group administrated with compound 13f at 5 mg/kg, group administrated with compound 13f at 10 mg/kg, group administrated with Linezolid at 5 mg/kg and group administrated with Linezolid at 10 mg/kg, with ten mice per group.
1) Based on the MLD result from the preliminary experiment, the mice were infected by intraperitoneal injection with a saline suspension of ATCC 25923, containing 15% yeast. Injection dosage of the bacteria was 0.2 OD/mice.
2) Administration time and frequency: The above mentioned compounds (compound 13f and Linezolid) were administrated to the mice of the treating groups 1 hour before and 4 hour after the infection, respectively. Meanwhile, the mice of the model group received only solvents in the same volume as that of the compound solution administrated in the treating group. The treating groups includes compound 13f group at 10 mg/kg, compound 13f group at 5 mg/kg, Linezolid group at 10 mg/kg and Linezolid group at 5 mg/kg.
3) Administration route: intravenous injection;
4) Dissolving compounds: The compounds were dissolved with 30% water solution of hydroxypropyl-β-cyclodextrin;
5) Efficacy observation: After infection and administration, the appetites, activities, symptoms and signs of the test mice were observed regularly. The survival rate was monitored every 4 h. The observation lasted for 7 days. During this period of observation, dissection of dying mice was immediately carried out after their death, and a histopathological examination was conducted, if necessary.
6) Evaluation: Main indexes include survival time, survival rate, and CFU count of organ and blood.

[2] = 10 mg/kg, 1 hour before and 4 hour after infection, 7 days observation

## CC(=O)NC[C@H]1CN(c2ccc(N3CCOCC3)c(F)c2)C(=O)O1 [Linezolid, reference compound]
Streptococcus agalactiae
  MIC50: 1 ng/mL (≈ 2.96 nM)
  MIC90: 1 ng/mL (≈ 2.96 nM)
  MICmode: 1 µg/L
  MICrange: 0.5 to 1 µg/L
[1]
  MIC50: 1 ng/mL (≈ 2.96 nM)
  MIC90: 1 ng/mL (≈ 2.96 nM)
  MICmode: 1 µg/L
  MICrange: 1 to 2 µg/L
ATCC 25923; 5 mg/kg
  time after infection at which death of mice was observed: 5 h
ATCC 25923; 5 mg/kg, in 24 h
  mortality: 50%
ATCC 25923; 5 mg/kg, in 48 h
  mortality: 70%
ATCC 25923; 5 mg/kg, in 72 h
  mortality: 100%
ATCC 25923; [2]
  protection rate: 100%

## CC(=O)NC[C@H]1CN(c2ccc(-n3cc(-c4ccccn4)cn3)c(F)c2)C(=O)O1 [Compound 13f, (S)-N-((3-(3-fluoro-4-(4-(pyridin-2-yl)-1H-pyrazol-1-yl)phenyl)-2-oxooxazolidin-5-yl)methyl)acetamide]
Streptococcus agalactiae
  MICmode: 1 µg/L
  MICrange: 0.5 to 1 µg/L
[1]
  MICmode: 1 µg/L
  MICrange: 1 to 2 µg/L
ATCC 25923; 5 mg/kg
  in vivo treatment effect and protection effect compared with Linezolid: better in vivo treatment effect and protection effect
  time after infection at which death of mice was observed: 5 h
ATCC 25923; 5 mg/kg, in 24 h
  mortality: 20%
ATCC 25923; 10 mg/kg
  therapeutic effect compared with linezolid: same therapeutic effect as linezolid
ATCC 25923; [2]
  survival rate: 100%

— patent US8946436B2, “Oxazolidinone compounds and their uses in preparation of antibiotics” (Sichuan Gooddoctor Pharmaceutical Group Co., Ltd., priority 2011, dated 2015)
